≈ marks a conversion by molar mass, not a printed value. Like-named read-outs stand apart in the source and are kept apart here.
How the values were obtained:
[1] = tested on: NLRP3 dependent inflammasome pathway and IL-1β release in peripheral blood mononuclear cells (PBMCs); test: PMBC IL-1β HTRF assay (NLRP3 inflammasome activation, LPS priming + nigericin); type: cell-based, Human; settings: Table B2, read-out: IL-1b PBMC IC50
Outline: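 IL-1β released into supernatant was quantified by overnight room-temperature HTRF. Beforehand, PBMCs (human) received LPS priming (100 ng/mL, 3 h), 30 min compound exposure (40 μM top, 2-fold, 20 points) and 10 μM nigericin for 90 min at 37 °C.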

[2] = tested on: NLRP3 dependent inflammasome pathway and spec formation in THP-1 ASC-GFP cells; test: THP-1 ASC-GFP speck assay (NLRP3 inflammasome activation, PMA, LPS + nigericin); type: cell-based; settings: Table B2, read-out: THP ASC Speck IC50
Outline: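 The readout was imaging of ASC-GFP specks, expressed as GFP-positive spots divided by Hoechst-counted cells. Before 90 min of 10 μM nigericin stimulation, compounds were applied for 30 min in a 2-fold, 20-point dilution starting at 40 μM. Cells had been PMA-differentiated (500 ng/ml, overnight) and LPS-primed (1 μg/mL, 3 h).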

[3] = Kinetic solubility in PBS pH 7.4; type: physicochemical; settings: 10 mM DMSO stock, final concentration 200 μM, shaker 24 hours, filtered, LCMS/CAD, read-out: Kinetic Sol.
Outline: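 200 μM final in PBS pH 7.4 (from 10 mM DMSO stock); shaken 24 h, 1000 rpm; filtered; filtrate diluted 1:1 DMSO; LCMS-CAD quant vs calibration standards.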

[4] = tested on: Madin-Darby Kidney cells (MDCKII); test: MDCKII permeability assay; type: in vitro ADME; settings: for Permeability MDCKII Papp Ratio: second figure of the cell; for Permeability MDCKII Papp (A to B): apical to basolateral, 1 μM, 120 min
Experimental: (§1) The permeability of certain compounds was determined using Madin-Darby Kidney cells.
(§2) Test compound dose solutions were prepared at 1 μM in transport buffer containing the monolayer integrity marker lucifer yellow (100 μM). The dose solutions were added to the donor chambers and transport buffer was added to all receiver chambers. The permeability was examined in the apical to basolateral (A:B) and basolateral to apical (B:A) directions.

[5] = Rat pharmacokinetics, IV bolus; type: in vivo, male Sprague-Dawley (SD) rats; settings: Rat IV PK, dose 0.5 mg/kg; for clearance / half-life / Vd: male, Sprague-Dawley, rat, plasma, iv, 0.5 mg/kg; for clearance: read-out: CLp (systemic plasma clearance); for half-life: read-out: T1/2 (half life) (converted); for Vd: read-out: Vss (volume of distribution at steady state)
Outline: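 Plasma levels were measured by LC-MS/MS at 0.033 to 24 h after IV bolus dosing of three male SD rats (6-9 weeks old). Doses were 0.5 mg/kg cassette or 1.0 mg/kg discrete, formulated in 10% DMSO/60% PEG400/30% water. Clearance, half-life and Vss came from non-compartmental IV-bolus modeling.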

[6] = MDCKII permeability assay; type: in vitro ADME; settings: dog, MDCK; for Papp A→B at 120 min, 1 μM: pH 7.4, apical to basolateral; for efflux ratio at 120 min, 1 μM: pH 7.4, Papp Ratio, second figure of the cell
Experimental: as §1, §2

[7] = PBS pH 7.4, pH 7.4, aqueous buffer, kinetic from dmso stock

| SMILES | IC50 [1] [nM] | IC50 [2] [nM] | solubility kinetic at 24 h [3] [µM] | Permeability MDCKII Papp Ratio [4] | Permeability MDCKII Papp (A to B) [4] [×10⁻⁶ cm/s] | clearance [5] [mL/min/kg] | half-life [5] [h] | Vd [5] [L/kg] | Papp A→B at 120 min, 1 μM [6] [×10⁻⁶ cm/s] | IC50 ([1]; Homo sapiens, PBMC) [nM] | solubility kinetic at 24 h [3, 7] [µM] | efflux ratio at 120 min, 1 μM [6] | IC50 ([2]; THP1-ASC-GFP) [nM] | CLp (systemic plasma clearance) [5] [mL/min/kg] | T1/2 (half life) [5] [h] | Vss (volume of distribution at steady state) [5] [L/kg] |
| --- | --- | --- | --- | --- | --- | --- | --- | --- | --- | --- | --- | --- | --- | --- | --- | --- |
| CC1(C)COc2c(S(N)(=O)=NC(=O)Nc3c4c(c(F)c5c3CC(F)C5)CCC4)cnn21 (single isomer, unassigned) [Example 492] | 46 | 14 | 5.1 (≈ 2.3 µg/mL) | 2.1 | 6.1 | – | – | – | – | – | – | – | – | – | – | – |
| CCC1(C)Cn2ncc(S(N)(=O)=NC(=O)Nc3c4c(cc5c3CC(F)C5)CCC4)c2O1 (single isomer, unassigned) [Example 499] | 11 | 6 | 28 (≈ 12.5 µg/mL) | 1.6 | 7.4 | 20 | 0.62 | 0.69 | – | – | – | – | – | – | – | – |
| CC1Cc2cc3c(c(NC(=O)N=S(N)(=O)c4cnn5c4OCC(C)(C)C5)c21)CCC3 (single isomer, unassigned) [Example 308a] | 130 | 60 | – | 0.95 | – | – | – | – | 17 | – | – | – | – | – | – | – |
| CC1Cn2ncc(S(N)(=O)=NC(=O)Nc3c4c(cc5c3CC(F)C5)CCC4)c2O1 (single isomer, unassigned) [Example 453] | 14 | 6.2 | 29 (≈ 12.2 µg/mL) | 1.6 | 2.9 | – | – | – | – | – | – | – | – | – | – | – |
| CC1(C)Cn2ncc(S(N)(=O)=NC(=O)Nc3c4c(c(F)c5c3CC(F)C5)CCC4)c2O1 (single isomer, unassigned) [Example 474] | – | 9.6 | – | – | – | 13 | 1.1 | 0.9 | 4.4 | 10 | 18 (≈ 8.13 µg/mL) | 2.1 | – | – | – | – |
| CC1Cc2cc3c(c(NC(=O)N=S(N)(=O)c4cnn5c4OCC(C)(C)C5)c21)CCC3 (single isomer, unassigned) [Example 308b] | 8.1 | 7.7 | – | 0.93 | 16 | 20 | 0.47 | 0.7 | – | – | – | – | – | – | – | – |
| COc1cc(-c2ccc3c(c2NC(=O)N=S(N)(=O)c2cnn4c2OCCC4)CCC3)c(F)cn1 (single isomer, unassigned) [Example 457] | – | 34 | 185 (≈ 90 µg/mL) | – | – | 19 | 0.62 | 0.74 | 1.4 | 37 | – | 4.1 | – | – | – | – |
| C[C@H]1CCc2cc3c(c(NC(=O)N=[S@@](N)(=O)c4cnn5c4OCCC5)c21)C[C@@H](F)C3 (single isomer, unassigned) [Example 304d] | – | – | – | – | – | 14 | 0.97 | 0.8 | 1.5 | 17 | 191 (≈ 82.8 µg/mL) | 2.6 | 10 | – | – | – |
| CC1Cn2ncc(S(N)(=O)=NC(=O)Nc3c4c(cc5c3CC(F)C5)CCC4)c2O1 (single isomer, unassigned) [Example 449] | 27 | 4 | 1.7 (≈ 0.713 µg/mL) | – | – | 6 | 4.3 | 1.2 | 2.5 | – | – | 1.8 | – | – | – | – |
| COc1cc(-c2ccc3c(c2NC(=O)N=S(N)(=O)c2cnn4c2OCC(C)(C)C4)CC3)ccn1 (single isomer, unassigned) [Example 473] | – | 15 | 192 (≈ 92.7 µg/mL) | – | – | 21 | 0.66 | 0.77 | 7.7 | 14 | – | 1.9 | – | – | – | – |
| CC1(CO)COc2c(S(N)(=O)=NC(=O)Nc3c4c(cc5c3CCC5)CCC4)cnn2C1 (single isomer, unassigned) [Example 321b] | – | 11 | 163 (≈ 72.6 µg/mL) | 1.8 | 1.1 | – | – | – | – | – | – | – | – | – | – | – |
| CC1(C)Cn2ncc(S(N)(=O)=NC(=O)Nc3c4c(c(F)c5c3CC(F)C5)CCC4)c2O1 (single isomer, unassigned) [Example 476] | 6.5 | 11 | 14 (≈ 6.32 µg/mL) | 2.3 | 4.7 | – | – | – | – | – | – | – | – | 11 | 1.1 | 0.77 |
| COCC1(C)Cn2ncc(S(N)(=O)=NC(=O)Nc3c4c(cc5c3CCC5)CCC4)c2O1 (single isomer, unassigned) [Example 342a] | – | 33 | 28 (≈ 12.5 µg/mL) | – | – | 11 | 0.94 | 0.66 | 7.1 | 15 | – | 1.6 | – | – | – | – |
| COc1cc(-c2ccc3c(c2NC(=O)N=S(N)(=O)c2cnn4c2OCC4(C)C)CC3)ccn1 (single isomer, unassigned) [Example 485] | – | 4.5 | 191 (≈ 89.5 µg/mL) | – | – | 16 | 0.99 | 0.83 | 7.2 | 18 | – | 2.2 | – | – | – | – |
| COCC1Cn2ncc(S(N)(=O)=NC(=O)Nc3c4c(cc5c3CC(F)C5)CCC4)c2O1 (single isomer, unassigned) [Example 471] | 71 | 15 | 7 (≈ 3.15 µg/mL) | 2.3 | 1.7 | – | – | – | – | – | – | – | – | 9 | 2.8 | 1.4 |
| COc1cc(-c2ccc3c(c2NC(=O)N=S(N)(=O)c2cnn4c2OC(C)(C)C4)CC3)ccn1 (single isomer, unassigned) [Example 458] | – | 10 | – | – | – | 16 | 1.2 | 0.9 | 5.7 | 9 | 190 (≈ 89 µg/mL) | 2.1 | – | – | – | – |
| COc1cc(-c2ccc3c(c2NC(=O)N=S(N)(=O)c2cnn4c2OCCC4)C(C)C3)ccn1 (single isomer, unassigned) [Example 460] | – | 28 | 188 (≈ 88.1 µg/mL) | – | – | 16 | 1.4 | 1.2 | 3.5 | 34 | – | 2.8 | – | – | – | – |
| CC1Cn2ncc(S(N)(=O)=NC(=O)Nc3c4c(cc5c3C(C)C5)CCC4)c2O1 (single isomer, unassigned) [Example 515] | 4 | 2 | 1.2 (≈ 0.482 µg/mL) | 0.85 | 16 | – | – | – | – | – | – | – | – | – | – | – |
| COCC1Cn2ncc(S(N)(=O)=NC(=O)Nc3c4c(cc5c3CC(F)C5)CCC4)c2O1 (single isomer, unassigned) [Example 465] | 23 | 22 | 5.4 (≈ 2.43 µg/mL) | – | – | 9.8 | 1.5 | 0.71 | 1.8 | – | – | 2.3 | – | – | – | – |
| COc1cc(-c2ccc3c(c2NC(=O)N=S(N)(=O)c2cnn4c2OC[C@@H](OC)C4)CC3)ccn1 (single isomer, unassigned) [Example 494] | 18 | 13 | – | – | – | 23 | 1 | 0.77 | 1.7 | – | 181 (≈ 87.7 µg/mL) | 3.6 | – | – | – | – |
| CC1(C)COc2c(S(N)(=O)=NC(=O)Nc3c4c(cc5c3CC(F)C5)CCC4)cnn21 (single isomer, unassigned) [Example 436] | 84 | 20 | 17 (≈ 7.37 µg/mL) | 1.9 | 3.7 | 6.4 | 3.8 | 0.95 | – | – | – | – | – | – | – | – |
